Structures are written as SMILES. Some results are limits rather than exact numbers.

Usually EC50 stands for the concentration that produces a half-maximal response.

The test system of assay [1] is HIV-1 pNL4-3. The experiment in a line: Viral mRNA expression after acute infection of HeLa-CD4 cells (RT-qPCR). In kind it is cell-based. From the text: FIG. 1E: Analysis of viral mRNA expression. […] First-strand cDNA was synthesized with random primers and target DNA was quantified by qPCR using primers recognizing the env and LTR regions. Results were normalized as copies of viral mRNA per copy of GAPDH mRNA. […] RNA samples not reverse transcribed were used as negative control. Error bars represent standard deviations.
Total RNA extracted four days after acute infection with pNL4-3 (MOI>>1) in the presence of drugs. First-strand cDNA was synthesized with random primers, and quantified by qPCR using primers recognizing the env and LTR regions. Results were normalized as copies of viral mRNA per copy of GAPDH mRNA. The arbitrary value of 1 was assigned to the DMSO control. RNA samples that were not reverse transcribed were used as negative control. Error bars represent standard deviation.
First-strand cDNA from RNA for qPCR was prepared using […]™ first-strand cDNA kit (Invitrogen), following the manufacturer's instructions, using approximately 5 μg of RNA as starting material and random hexamers as first-strand primers. Quantitative PCR was performed with an aliquot of cDNA as template, using […]® 480 SYBR Green I Master (Roche) in a 20 μL reaction according to the manufacturer's instructions. […] The primers used were as follows: […]
PIs show low efficacy in this short 48 h assay as they act only upon spreading from the initial infection. […] The results were similar when viral production was determined by RT-PCR of viral RNA in HeLa-CD4 cells infected and treated for four days with one compound from each class of inhibitors (FIG. 5E).
On the technique in general: In qPCR the cycle at which signal appears reflects the starting amount.

For assay [2], the system named is HIV-1 pNL43. Description: HIV-1 replication in PHA/IL-2 stimulated human PBMCs, p24 ELISA. In kind it is cell-based. The procedure:
Freshly isolated uninfected human PBMCs were stimulated with PHA for two days, washed, and grown from then on in IL-2 alone. […] Antigen p24 was measured 5 days post infection using a sandwich ELISA kit.
To isolate PBMCs, 24 ml of total blood diluted two fold in RPMI or PBS were carefully layered over 12 ml of Ficoll-paque and centrifuged at 2000 rpm for 20 min (brakes off). Resultant layers are approximately from top to bottom: plasma-platelets-PBMC-Ficoll-red blood cells (with granulocytes). Most of the plasma was pipetted off and discarded. The buffy coat with PBMC's was carefully removed from 3 large (50 ml) tubes and transferred to a new 50 ml tube. The remaining Ficoll and red blood cells were discarded in closed tubes. Enough PBS was added to the PBMCs to make up 50 ml and centrifuged at 1200 rpm for 10 min, brakes on. The supernatant was decanted and the pellet was loosened and washed twice with PBS. Washed pellet was recovered in 30 ml of RPMI 1640 supplemented with 10% serum, 1% Penicillin-streptomycin and mixed well. PBMCs were counted and plated at 1×10^6 cells/ml. To activate the PBMCs, PHA (phytohaemagglutinin) was added at 3 μg/ml. Two to three days later add Interleukin 2 (IL2) at 3×10^−3 μg/ml.
PHA activated PBMCs were centrifuged and recovered at 6×10^6 cells in 3 ml complete RPMI. Then 3 ml of viral supernatant was added and incubated for 4 h at 37° C. After this period, cells were centrifuged, washed 3 times with PBS and recovered in 3 ml complete RPMI. PBMCs were plated at 0.5 ml per well in a 6-well plate, and 0.5 ml media with DMSO control or anti-viral control at 2× final concentration was added. IL-2 was added at 3×10^−3 μg/ml. Supernatant was recovered for p24 assay every 3-4 days post infection. Cells were split at 1×10^6 cell per ml every 5-7 days.
HIV-1 transcription is intimately linked to T-cell activation due to shared motifs between the HIV-LTR and the regulatory regions in induced genes, namely NF-κB. A large variety of T cell stimuli activate NF-κB, including PHA, IL-2 and tumor necrosis factor alpha (TNF-α).

Assay [3] relates to HIV-2 (ROD/A). Description: Chronic HIV-2 replication in HeLa-CD4 cells, p24 ELISA. The note with it: p24, 7 days; read-out: EC50, chronic infection by HIV-2. It is filed as cell-based. An excerpt:
Antigen p24 in the supernatant measured as in FIG. 5F, 7 days post-infection.
(ELISA stands for enzyme-linked immunosorbent assay.)

Assay [4] concerns basic region Tat mutant (Tat-1 BRM). The experiment in a line: Biotinylated compound pull-down of basic region Tat mutant. In kind it is binding, HIV-1. How it is done: HEK293T cells were transfected with flag-tagged Tat 101 a.a. (Tat-F-101-wt), a shorter Tat version with 86 a.a. (Tat-F-86-wt), Tat 86 a.a. mutated in the basic domain (Tat-F-BRM), flag-tagged CDK11 (CDK11-F), flag-tagged 9G8 (9G8-F) and empty vector control.
DYNABEADS® MYONE™ Streptavidin T1 (12.5 μl slurry) (Invitrogen) were pre-saturated with 1.88 μl of 1 mM in DMSO of Biotin alone or Bio-dCA and incubated for 1 h at room temperature with orbital rocking, plus an additional 30 min with Biotin (0.63 μl of 1 mM in DMSO). Protein extracts (250 μg per sample) were incubated with the pre-saturated beads in lysis buffer supplemented with 0.1% BSA for 1 h at 4° C. with orbital rocking. After incubation, the beads were washed three times with lysis buffer.

Assay [5] deals with Tat. Description: Tat-flag sub-cellular localization by immunofluorescence. It is filed as cell-based, HIV-1. The note with it: HeLa-CD4 cells transfected with Tat-flag. How it is done:
Flag epitope-tagged Tat was recognized with anti-flag and AlexaFluor 568 anti-IgG. Transfections were performed in HeLa-CD4 cells. Magnification 300×.
Flag recognized with anti-flag and AlexaFluor 568 anti-IgG antibodies. Endogenous fibrillarin stained with anti-fibrillarin and FITC-anti-IgG antibodies.
HeLa cells were grown on fibronectin treated coverslips and transfected with the indicated plasmids. Following transfection, cells were treated with DMSO or dCA. Cells were then fixed with 3.7% formaldehyde. After fixation, the cells were permeabilized with 0.1% triton X-100 in PBS with 5% FBS. Primary antibodies (mouse α-FLAG M2 (Sigma), rabbit α-Fibrillarin C13C3 (Cell Signaling), and/or rabbit α-Cyclin T1 H-245 (Santa Cruz)) were added along with the permeabilization solution and incubated at room temperature for 1 hour. The cells were washed with PBS and incubated with 1:500 dilution of Alexa Fluor conjugated secondary antibodies in PBS containing 5% FBS for 1 hour in the dark. […]
Given that dCA interacts with Tat via its basic domain, which is also the nucleolar localization signal (NoLS), it was questioned whether dCA impacts Tat localization. […] The Tat basic mutant was analyzed in parallel, and this protein was completely excluded from the nucleolus both in the presence or absence of dCA.

With `CN(C)[C@H]1C[C@@]23CC[C@@]4(O2)C(=CC[C@]2(C)C(c5ccc6ccncc6c5)=CC[C@H]24)C=C3[C@@H](O)[C@@H]1O` [dCA, didehydro-Cortistatin A], in assay [1] (HeLa-CD4 infected and treated for four days), the “maximum inhibition, viral RNA” value is given as “around 80%”. Besides, the EC50 is less than 0.1 nM in assay [1] (HeLa-CD4 infected and treated for four days, read-out: EC50, viral production by RT-PCR of viral RNA); less than 1 nM in assay [2] (p24 ELISA, 5 days post infection, read-out: EC50, HIV-1 replication in primary cells (PBMCs)); approximately 1.7 nM in assay [3]. The “total amount of viral RNA in infected cells” value in assay [1] (acute infection, increasing concentrations) was “drastic dose-dependent reduction”. Further, the “maximum inhibition plateau in PBMCs” value in assay [2] came out at 86%. Besides, the “interaction with TAR-nonbinding basic region Tat mutant (pull-down)” value in assay [4] is “not”. Moreover, in assay [5], the “effect on Tat localization” value was “redistribution of Tat to the periphery of the nucleolus”.

Values taken from patent US9682994B2, “Inhibitors of retroviral replication” (The Scripps Research Institute, priority 2011, dated 2017).
